These results are taken from patent publication EP0606463B1, “NEUROMEDIN B RECEPTOR ANTAGONISTS” (The Administrators of The Tulane Educational Fund, priority 1992, dated 1994).

The target of one test is T1, NMB Receptor (Rattus norvegicus, UniProt P24053).
T1 construct: a full length NMB-preferring bombesin receptor clone generated from rat esophagus; expressed in transfected cells; host or cells: BALB 3T3 cells
T1 sequence (P24053 1-390): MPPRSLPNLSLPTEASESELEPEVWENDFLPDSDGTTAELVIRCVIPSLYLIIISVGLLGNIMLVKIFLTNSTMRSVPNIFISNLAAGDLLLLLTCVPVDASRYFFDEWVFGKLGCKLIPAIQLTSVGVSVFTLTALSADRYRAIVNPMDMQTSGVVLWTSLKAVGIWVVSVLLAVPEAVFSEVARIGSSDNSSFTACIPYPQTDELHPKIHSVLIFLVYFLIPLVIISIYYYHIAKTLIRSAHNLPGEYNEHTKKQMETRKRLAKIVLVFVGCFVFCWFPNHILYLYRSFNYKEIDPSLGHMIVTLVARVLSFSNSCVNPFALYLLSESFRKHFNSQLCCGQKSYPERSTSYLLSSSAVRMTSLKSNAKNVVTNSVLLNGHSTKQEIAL
In words: [3H]inositol phosphates (IP) in NMB-R transfected cells. It counts as cell-based. Particulars: for NMB-R Transfected Cells [^3H]IP Alone (10 µ M): analog 10 µM alone, no-additive control 13 ± 3; for NMB-R Transfected Cells [^3H]IP Plus NMB (3 nM): analog 10 µM plus NMB 3 nM, NMB without analog 186 ± 58; for effect on NMB-stimulated increase in [^3H]IP: NMB-R transfected cells, 3 nM NMB, peptide 10 µM. The method, then: As described previously [Wada, E., et al. Neuron 6:421 (1991)], BALB 3T3 cells expressing a stably transfected rat NMB receptor (NMB-R transfected cells) were obtained using calcium phosphate precipitation of a full length NMB-preferring bombesin receptor clone generated from rat esophagus and subcloned into a modified version of the pCD2 plasmid. Cells were passaged every 3-4 days at confluence, using 0.1% trypsin in 1 mM EDTA. Rat glioblastoma C-6 tumor cells were maintained similarly and were passaged weekly at confluence. Both cell lines were cultured at 37°C in a 5% CO2 atmosphere. Rat AR 42J pancreatic acinar cells were cultured in Dulbecco's modified Eagle's medium (DMEM) without antibiotics and supplemented with 10% (vol/vol) fetal calf serum. The incubation atmosphere consisted of 10% CO2-90% humidified air at 37°C.
Total phosphoinositides in C-6 cells and in NMB-R transfected cells were determined as described previously, with minor modifications [Benya, R. V. et al. Mol. Pharmacol. 42:1058 (1992); and Wang, L-H. et al. Biochem. J. 286:641 (1992)]. Cells were grown to confluence in 24-well plates and then loaded with 100 µCi/ml myo-[2-^3H]inositol in Dulbecco's modified essential medium with 2% fetal bovine serum at 37°C for 48 hrs. Cells were washed and incubated in phosphoinositide buffer (standard buffer additionally containing 10 mM LiCl, 20 mM HEPES, 2 mM CaCl2, 2% BSA, and 1.2 mM MgSO4) for 15 min and then for 60 min at 37°C with agonists at various concentrations or with 3 nM NMB (a half-maximal effective concentration) and possible antagonists at different concentrations. Reactions were halted using ice-cold 1% HCl in methanol, and the inositol phosphates (IP) were isolated as described previously [Bologna, M. et al. Cancer 63:1714 (1989); and Endo, T. et al. J. Endocrinol. 131:313 (1991)]. Briefly, after loading of the anion exchange column, free [^3H]glycerophosphorylinositol was removed by washing with 5 mM disodium tetraborate in 60 mM sodium formate. Total [^3H]inositol phosphates were then eluted using 100 mM formic acid in 1.0 M ammonium formate as described previously [Benya, R. V. et al. Mol. Pharmacol. 42:1058 (1992); and Wang, L-H. et al. Biochem. J. 286:641 (1992)].

The next test concerns the target T2, rat NMB receptor (Rattus norvegicus, UniProt P24053).
T2 construct: a full length NMB-preferring bombesin receptor clone generated from rat esophagus; expressed in transfected cells; host or cells: BALB 3T3 cells
T2 sequence (P24053 1-390): T1 sequence (P24053 1-390)
In words: Binding of 125I-[D-Tyr0]NMB to NMB-R transfected BALB 3T3 cells. As to conditions: for fold by which cyclo SS-octa was more potent than the analog: inhibition of ^125I-[Tyr^0]NMB binding to NMB-R transfected cells. The method, then: Cells were passaged every 3-4 days at confluence, using 0.1% trypsin in 1 mM EDTA. Rat glioblastoma C-6 tumor cells were maintained similarly and were passaged weekly at confluence. Both cell lines were cultured at 37°C in a 5% CO2 atmosphere. Rat AR 42J pancreatic acinar cells were cultured in Dulbecco's modified Eagle's medium (DMEM) without antibiotics and supplemented with 10% (vol/vol) fetal calf serum. The incubation atmosphere consisted of 10% CO2-90% humidified air at 37°C.

In another test the target is T3, GRP Receptor (Rattus norvegicus, UniProt P52500).
T3 construct: from tissue; host or cells: dispersed pancreatic acini
In words: Amylase release from rat pancreatic acini. Particulars: for Rat Pancreatic Acini Amylase Release Alone (10µM): analog 10 µM alone, no-additive control 4 ± 1; for Rat Pancreatic Acini Amylase Release Plus Bn(0.3 nM): analog 10 µM plus Bn 0.3 nM, Bn without analog 15 ± 1. It counts as cell-based.

Where a SMILES comes first, the peptide text is derived from it. Bridges are numbered along the chain shown (N, C = ends). [ ]: non-standard residue; d: D form. 2Nal = N[C@@H](Cc1ccc2ccccc2c1)C(=O)O; d2Nal = N[C@H](Cc1ccc2ccccc2c1)C(=O)O

T3 sequence (P52500 whole entry): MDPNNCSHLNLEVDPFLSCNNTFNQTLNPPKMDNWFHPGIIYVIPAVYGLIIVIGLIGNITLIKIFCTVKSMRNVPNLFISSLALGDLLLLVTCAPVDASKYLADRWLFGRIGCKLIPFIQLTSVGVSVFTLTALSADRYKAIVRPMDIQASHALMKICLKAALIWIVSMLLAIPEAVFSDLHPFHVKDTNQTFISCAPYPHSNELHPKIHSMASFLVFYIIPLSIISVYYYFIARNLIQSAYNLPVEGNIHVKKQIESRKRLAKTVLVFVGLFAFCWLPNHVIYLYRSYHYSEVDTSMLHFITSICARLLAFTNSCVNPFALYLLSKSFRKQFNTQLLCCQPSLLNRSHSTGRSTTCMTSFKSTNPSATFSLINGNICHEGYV

In the case of `CC(C)[C@@H]1NC(=O)[C@H](CCCCN)NC(=O)[C@@H](Cc2c[nH]c3ccccc23)NC(=O)[C@H](Cc2ccc(O)cc2)NC(=O)[C@@H](NC(=O)[C@@H](N)Cc2ccc3ccccc3c2)CSSC[C@@H](C(=O)N[C@H](Cc2ccc3ccccc3c2)C(N)=O)NC1=O` [Analog #9, [Nal^1,D-Nal^8]-cyclo SS-octa] (H-[2Nal]CY[dW]KVC[d2Nal]-NH2; disulfide 2-7; N-terminus assumed), at NMB Receptor, the “NMB-R Transfected Cells [^3H]IP Alone (10 µ M)” value stood at 8 ± 2 dpm x 10^3 and the “NMB-R Transfected Cells [^3H]IP Plus NMB (3 nM)” value (“NMB-R Transfected Cells … (3 nM)” for short) amounted to 28 ± 6 dpm x 10^3. Further, the “fold by which cyclo SS-octa was more potent than the analog” value at rat NMB receptor turned out to be 6 fold. In addition, at GRP Receptor, the “Rat Pancreatic Acini Amylase Release Alone (10µM)” value was 3 ± 1 % total and the “Rat Pancreatic Acini Amylase Release Plus Bn(0.3 nM)” value amounted to 16 ± 1 % total.
For `CC(C)[C@@H]1NC(=O)[C@H](CCCCN)NC(=O)[C@@H](Cc2c[nH]c3ccccc23)NC(=O)[C@H](Cc2ccc(O)cc2)NC(=O)[C@H](NC(=O)[C@H](N)Cc2ccc3ccccc3c2)CSSC[C@@H](C(=O)N[C@@H](Cc2ccc3ccccc3c2)C(N)=O)NC1=O` [Analog #10, [D-Cys^2]-cyclo SS-octa] (H-[d2Nal][dC]Y[dW]KVC[2Nal]-NH2; disulfide 2-7; N-terminus assumed), on NMB Receptor, the “effect on NMB-stimulated increase in [^3H]IP” value is “completely inhibited”, the “NMB-R Transfected Cells [^3H]IP Alone (10 µ M)” value is on record as 10 ± 3 dpm x 10^3 and the “NMB-R Transfected Cells … (3 nM)” value turned out to be 4 ± 2 dpm x 10^3. Moreover, on rat NMB receptor, the “fold by which cyclo SS-octa was more potent than the analog” value is reported as 6 fold. Further, the “decrease in NMB receptor affinity compared with #1” value at rat NMB receptor (structure-function comparison of Table 1 values) stood at 5 fold. For the same molecule, on GRP Receptor, the “Rat Pancreatic Acini Amylase Release Alone (10µM)” value is on record as 3 ± 1 % total and the “Rat Pancreatic Acini Amylase Release Plus Bn(0.3 nM)” value is recorded as 16 ± 1 % total.
On to `CC(C)[C@@H]1NC(=O)[C@H](CCCCN)NC(=O)[C@@H](Cc2c[nH]c3ccccc23)NC(=O)[C@H](Cc2ccc(O)cc2)NC(=O)[C@@H](NC(=O)[C@H](N)Cc2c[nH]c3ccccc23)CSSC[C@@H](C(=O)N[C@@H](Cc2ccc3ccccc3c2)C(N)=O)NC1=O` [Analog #12, [D-Trp^1]-cyclo SS-octa] (H-[dW]CY[dW]KVC[2Nal]-NH2; disulfide 2-7; N-terminus assumed), for which, on NMB Receptor, the “NMB-R Transfected Cells [^3H]IP Alone (10 µ M)” value came out at 9 ± 2 dpm x 10^3 and the “NMB-R Transfected Cells … (3 nM)” value turned out to be 43 ± 2 dpm x 10^3. Also, on rat NMB receptor, the “fold by which cyclo SS-octa was more potent than the analog” value was determined as 9 fold. On GRP Receptor, the “Rat Pancreatic Acini Amylase Release Alone (10µM)” value was 3 ± 1 % total and the “Rat Pancreatic Acini Amylase Release Plus Bn(0.3 nM)” value is 13 ± 1 % total.
Turning to `NCCCC[C@@H]1NC(=O)[C@@H](Cc2c[nH]c3ccccc23)NC(=O)[C@H](Cc2ccc(O)cc2)NC(=O)[C@@H](NC(=O)[C@H](N)Cc2ccc3ccccc3c2)CSSC[C@@H](C(=O)N[C@@H](Cc2ccc3ccccc3c2)C(N)=O)NC(=O)[C@H](Cc2ccccc2)NC1=O` [Analog #13, [Phe^6]-cyclo SS-octa] (H-[d2Nal]CY[dW]KFC[2Nal]-NH2; disulfide 2-7; N-terminus assumed), on NMB Receptor, the “effect on NMB-stimulated increase in [^3H]IP” value is reported as “completely inhibited”, the “NMB-R Transfected Cells [^3H]IP Alone (10 µ M)” value is on record as 10 ± 1 dpm x 10^3 and the “NMB-R Transfected Cells … (3 nM)” value worked out at 9 ± 4 dpm x 10^3. Besides, the “fold greater affinity for the NMB than the GRP receptors” value at rat NMB receptor (NMB-R transfected cells versus GRP receptors on rat pancreatic acini) was > 100 fold. Further, the “fold by which cyclo SS-octa was more potent than the analog” value on rat NMB receptor stood at 2 fold. In addition, on GRP Receptor, the “Rat Pancreatic Acini Amylase Release Alone (10µM)” value is listed as 3 ± 1 % total and the “Rat Pancreatic Acini Amylase Release Plus Bn(0.3 nM)” value was 14 ± 1 % total.
